Measurements published in article PMC6746701, “A phyB-PIF1-SPA1 kinase regulatory complex promotes photomorphogenesis in Arabidopsis” (Nature Communications, 2019).

What was measured:
[1] = target: T1, full-length SPA1 (Arabidopsis thaliana, UniProt Q9SYX2); assay: in vitro kinase assay, autoradiogram; type: biochemical; conditions: GST-PIF1 as co-substrate, ATP 0.004-2.5 mM, 10 mM MgCl2, pH 7.5, 28 °C; labelled compound (gamma-32P)
T1 construct: full length, strep-tagged (3x Flag also cloned), Pichia pastoris GS115, tags kept
T1 sequence (Q9SYX2 1-1029): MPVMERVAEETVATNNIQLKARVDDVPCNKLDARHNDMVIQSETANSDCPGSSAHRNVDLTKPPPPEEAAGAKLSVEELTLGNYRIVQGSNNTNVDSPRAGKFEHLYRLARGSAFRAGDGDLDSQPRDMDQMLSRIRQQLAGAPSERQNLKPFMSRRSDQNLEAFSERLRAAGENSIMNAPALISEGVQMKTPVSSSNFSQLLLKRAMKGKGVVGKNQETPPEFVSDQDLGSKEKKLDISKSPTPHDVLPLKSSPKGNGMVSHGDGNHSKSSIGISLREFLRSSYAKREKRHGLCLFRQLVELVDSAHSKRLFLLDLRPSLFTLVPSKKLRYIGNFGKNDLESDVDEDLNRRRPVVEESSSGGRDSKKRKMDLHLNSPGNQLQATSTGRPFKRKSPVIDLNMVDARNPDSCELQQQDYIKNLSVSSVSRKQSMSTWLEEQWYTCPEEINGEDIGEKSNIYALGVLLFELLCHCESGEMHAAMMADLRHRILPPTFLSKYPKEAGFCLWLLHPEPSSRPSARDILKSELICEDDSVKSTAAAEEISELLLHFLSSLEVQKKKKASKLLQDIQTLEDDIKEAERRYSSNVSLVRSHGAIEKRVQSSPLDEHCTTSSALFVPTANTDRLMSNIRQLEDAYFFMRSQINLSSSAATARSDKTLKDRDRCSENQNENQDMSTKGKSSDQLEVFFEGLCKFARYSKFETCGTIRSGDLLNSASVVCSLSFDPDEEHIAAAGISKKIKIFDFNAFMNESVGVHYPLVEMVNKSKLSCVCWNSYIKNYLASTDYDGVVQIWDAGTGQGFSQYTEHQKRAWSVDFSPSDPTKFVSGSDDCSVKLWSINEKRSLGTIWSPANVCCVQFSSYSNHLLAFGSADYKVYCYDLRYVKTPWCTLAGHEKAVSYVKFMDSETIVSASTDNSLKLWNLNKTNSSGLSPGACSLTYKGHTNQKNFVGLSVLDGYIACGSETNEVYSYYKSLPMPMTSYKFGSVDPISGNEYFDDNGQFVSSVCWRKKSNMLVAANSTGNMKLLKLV

[2] = target: T2, phyA (Arabidopsis thaliana, UniProt P14712); assay: in vitro kinase assay, autoradiogram; type: biochemical; conditions: PIF1 as co-substrate, 10 mM MgCl2, pH 7.5, 28 °C; labelled compound (gamma-32P)
T2 construct: holoprotein purified from Saccharomyces cerevisiae
T2 sequence (P14712 1-1122): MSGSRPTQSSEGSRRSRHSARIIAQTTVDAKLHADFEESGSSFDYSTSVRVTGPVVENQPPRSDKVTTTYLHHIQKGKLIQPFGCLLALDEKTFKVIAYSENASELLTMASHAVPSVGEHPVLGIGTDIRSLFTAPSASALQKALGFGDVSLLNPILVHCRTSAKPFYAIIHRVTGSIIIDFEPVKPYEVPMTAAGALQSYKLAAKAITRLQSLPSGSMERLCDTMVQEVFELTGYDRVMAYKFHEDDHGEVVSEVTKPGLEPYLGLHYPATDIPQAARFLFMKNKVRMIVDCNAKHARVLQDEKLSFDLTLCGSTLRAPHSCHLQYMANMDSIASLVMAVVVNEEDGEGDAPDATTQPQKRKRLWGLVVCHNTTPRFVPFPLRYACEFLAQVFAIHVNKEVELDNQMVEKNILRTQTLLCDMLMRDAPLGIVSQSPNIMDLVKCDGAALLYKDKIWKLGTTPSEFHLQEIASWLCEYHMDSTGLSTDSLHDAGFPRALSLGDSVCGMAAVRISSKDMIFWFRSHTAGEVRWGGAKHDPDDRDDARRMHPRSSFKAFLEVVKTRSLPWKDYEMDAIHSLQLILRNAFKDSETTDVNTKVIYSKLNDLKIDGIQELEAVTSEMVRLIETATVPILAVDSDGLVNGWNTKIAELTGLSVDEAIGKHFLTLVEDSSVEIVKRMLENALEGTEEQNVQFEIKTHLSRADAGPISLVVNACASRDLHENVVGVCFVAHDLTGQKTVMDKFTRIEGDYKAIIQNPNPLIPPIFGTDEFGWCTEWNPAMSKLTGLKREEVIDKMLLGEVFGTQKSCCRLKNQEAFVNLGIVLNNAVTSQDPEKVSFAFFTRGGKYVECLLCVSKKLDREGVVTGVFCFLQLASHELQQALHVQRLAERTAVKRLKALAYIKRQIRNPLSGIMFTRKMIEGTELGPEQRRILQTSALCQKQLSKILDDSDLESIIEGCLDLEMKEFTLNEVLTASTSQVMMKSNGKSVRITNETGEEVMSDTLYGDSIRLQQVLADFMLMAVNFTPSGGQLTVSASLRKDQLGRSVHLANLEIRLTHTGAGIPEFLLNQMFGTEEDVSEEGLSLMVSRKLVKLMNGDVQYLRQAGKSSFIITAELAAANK

For Nc1ncnc2c1ncn2[C@@H]1O[C@H](COP(=O)(O)OP(=O)(O)OP(=O)(O)O)[C@@H](O)[C@H]1O [ATP], the “in vitro kinase assay, autoradiogram” value [1] was “SPA1 also phosphorylated PIF1 in an ATP concentration- and time-dependent manner” and the “in vitro kinase assay, autoradiogram” value [2] was “In this assay, both phyA and phyB phosphorylated PIF1 in vitro”.
